# Activity calls are given as the source filed them.
# Assays:
# [1] = target: T1, Heat shock factor protein 1 (Mus musculus, UniProt P38532); test: enhancement of HSF1-driven luciferase signal – cell-based, NIH3T3, luminescence, dose retest, confirmation (AID 435004); assay type: functional;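 also: stress induced by proteasome inhibitor MG132 added 30 min after compound; luciferase reporter driven by HSF1 response element in NIH3T3 cells; actives raise luminescence as potentiators of the MG132 stress response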
# T1 sequence (P38532 whole entry): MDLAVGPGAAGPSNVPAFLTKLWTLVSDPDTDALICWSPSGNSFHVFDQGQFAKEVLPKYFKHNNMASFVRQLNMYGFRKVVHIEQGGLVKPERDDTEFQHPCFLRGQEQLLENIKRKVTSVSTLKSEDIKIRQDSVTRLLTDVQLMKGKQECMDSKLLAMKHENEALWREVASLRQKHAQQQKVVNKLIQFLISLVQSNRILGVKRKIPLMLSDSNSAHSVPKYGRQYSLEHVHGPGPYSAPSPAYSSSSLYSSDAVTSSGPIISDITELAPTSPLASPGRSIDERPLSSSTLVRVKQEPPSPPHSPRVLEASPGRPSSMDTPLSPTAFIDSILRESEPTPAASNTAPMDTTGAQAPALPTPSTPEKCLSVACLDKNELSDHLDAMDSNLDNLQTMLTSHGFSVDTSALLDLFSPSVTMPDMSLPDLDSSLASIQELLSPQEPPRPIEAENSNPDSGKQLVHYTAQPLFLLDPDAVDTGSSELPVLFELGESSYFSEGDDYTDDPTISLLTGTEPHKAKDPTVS
# [2] = target: T2, Rac GTPase-activating protein 1 (Homo sapiens, UniProt Q9H0H5); test: blockers of MgcRacGAP-driven Rac1 GTP hydrolysis – biochemical, ADP Hunter fluorescence, primary and confirmatory, confirmation (AID 624330); assay type: functional
# T2 sequence (Q9H0H5 whole entry): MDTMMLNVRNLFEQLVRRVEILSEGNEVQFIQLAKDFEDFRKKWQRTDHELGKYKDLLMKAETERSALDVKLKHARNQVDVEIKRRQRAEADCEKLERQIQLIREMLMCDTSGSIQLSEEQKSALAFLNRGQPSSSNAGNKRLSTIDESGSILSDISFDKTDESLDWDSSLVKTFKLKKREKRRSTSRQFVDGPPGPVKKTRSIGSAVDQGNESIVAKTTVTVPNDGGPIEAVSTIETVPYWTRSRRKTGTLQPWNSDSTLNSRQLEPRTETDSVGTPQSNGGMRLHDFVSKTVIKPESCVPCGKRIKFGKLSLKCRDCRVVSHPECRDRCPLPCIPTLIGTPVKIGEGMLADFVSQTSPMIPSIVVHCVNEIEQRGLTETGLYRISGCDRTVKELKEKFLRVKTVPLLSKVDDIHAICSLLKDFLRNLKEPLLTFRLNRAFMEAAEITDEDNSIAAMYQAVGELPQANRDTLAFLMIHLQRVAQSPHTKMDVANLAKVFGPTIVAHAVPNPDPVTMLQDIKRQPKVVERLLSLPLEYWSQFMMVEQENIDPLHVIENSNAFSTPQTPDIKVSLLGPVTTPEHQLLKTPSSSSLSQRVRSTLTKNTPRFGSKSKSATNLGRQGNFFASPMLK
# [3] = target: FAD-linked sulfhydryl oxidase ALR (Homo sapiens, UniProt P55789); test: ALR-catalysed DTT oxidation blockers – biochemical, H2O2 detection, luminescence, cherry-pick, dose response (AID 493248)
# [4] = Luminescence Cell-Based Dose Response HTS to Identify Activators of Luciferase Translation or Activity in H4 […] Cells. [Related pubchem assays: 1829 (Project Summary), 1814 (Primary HTS)]; assay type: functional
# [5] = Luminescence Cell-Based Dose Confirmation HTS to Identify Activators of 5'UTR Stem-Loop Driven Alpha-Synuclein mRNA Translation in H4 Neuroglioblastoma Cells. [Related pubchem assays: 1829 (Project Summary), 1814 (Primary HTS)]; assay type: functional
# H4 = test: Luminescence Cell-Based Dose Response HTS to Identify Activators of 5'UTR Stem-Loop Driven Prion Protein mRNA Translation in H4 Neuroglioblastoma Cells. [Related pubchem assays: 1829 (Project Summary), 1814 (Primary HTS)]; assay type: functional; conditions: Homo sapiens
# [6] = target: Induced myeloid leukemia cell differentiation protein Mcl-1 (Homo sapiens, UniProt Q07820); assay type: functional
# cells = assay type: functional
# [7] = loss of viability in HepG2 cells – cell-based, CellTiter-Glo, cherry-picked, cytotoxicity control for Shn3 inhibitor project, dose response (AID 624134); assay type: functional
# [8] = reduction of Shn3 3'UTR-driven luciferase in osteoblasts – cell-based, Clone20 osteoblasts, firefly luciferase, cherry-picked, dose response (AID 624132); assay type: functional;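 also: firefly luciferase luminescence from reporter carrying the Shn3 3'UTR in osteoblasts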
# [9] = alpha-synuclein stem-loop luciferase translation blockers – H4 neuroglioma cells, luminescence, confirmation (AID 1988); assay type: functional, cell-based
# Nonstructural protein 1 = Nonstructural protein 1 (Influenza A virus, UniProt Q194T2); assay type: functional, Influenza A virus (A/California/07/2009(H1N1))
# [10] = luciferase reporter signal suppression in cells – H4 neuroglioma cells, luminescence, dose response (AID 1990); assay type: functional, cell-based
# [11] = Luminescence Cell-Based Dose Response HTS to Identify Inhibitors of 5'UTR Stem-Loop Driven Prion Protein mRNA Translation in H4 Neuroglioblastoma Cells. [Related pubchem assays: 1827 (Project Summary), 1813 (Primary HTS)]; assay type: functional
# [12] = non-specific 3'UTR reporter inhibition in Clone20-Shn3RL – cell-based, Renilla luciferase, cherry-picked, counter-screen for Shn3 inhibitor project, dose response (AID 624133); assay type: functional
# [13] = target: T3, Replicative DNA helicase DnaB (Mycobacterium tuberculosis, UniProt P9WMR3); test: DnaB intein splicing inhibitors, dose response, biochemical, cell-free fluorescence (AID 449749); assay type: functional
# T3 sequence (P9WMR3 whole entry): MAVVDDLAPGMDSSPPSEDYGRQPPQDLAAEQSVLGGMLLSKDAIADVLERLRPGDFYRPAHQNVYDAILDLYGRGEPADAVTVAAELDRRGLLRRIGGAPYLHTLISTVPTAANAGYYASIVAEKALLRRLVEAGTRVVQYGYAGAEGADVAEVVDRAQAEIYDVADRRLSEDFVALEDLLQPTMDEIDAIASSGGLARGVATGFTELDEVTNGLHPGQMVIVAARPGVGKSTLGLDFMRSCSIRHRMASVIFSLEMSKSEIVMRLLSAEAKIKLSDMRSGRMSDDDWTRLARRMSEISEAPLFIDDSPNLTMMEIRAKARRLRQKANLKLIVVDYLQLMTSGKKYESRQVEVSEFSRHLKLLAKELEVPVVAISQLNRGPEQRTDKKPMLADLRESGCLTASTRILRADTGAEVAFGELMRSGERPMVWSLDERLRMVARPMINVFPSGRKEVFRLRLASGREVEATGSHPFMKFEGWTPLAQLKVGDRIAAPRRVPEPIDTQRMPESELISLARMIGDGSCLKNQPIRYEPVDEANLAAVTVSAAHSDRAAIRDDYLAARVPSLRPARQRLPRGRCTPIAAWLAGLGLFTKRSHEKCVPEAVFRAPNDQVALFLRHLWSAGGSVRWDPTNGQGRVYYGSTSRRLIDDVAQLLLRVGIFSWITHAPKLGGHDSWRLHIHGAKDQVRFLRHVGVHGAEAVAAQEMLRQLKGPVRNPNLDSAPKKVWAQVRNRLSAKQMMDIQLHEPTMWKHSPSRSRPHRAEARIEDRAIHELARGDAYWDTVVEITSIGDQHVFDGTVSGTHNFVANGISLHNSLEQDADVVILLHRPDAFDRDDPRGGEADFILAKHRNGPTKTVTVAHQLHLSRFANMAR
# Protein RecA = target: T4, Protein RecA (Mycobacterium tuberculosis, UniProt P9WHJ3); test: Fluorescence Cell-Free Homogeneous Dose Retest to Identify Inhibitors of RecA-Intein Splicing Activity. [Related pubchem assays (depositor defined):AID2097, AID2223, AID489010, AID492950]; assay type: functional
# T4 sequence (P9WHJ3 whole entry): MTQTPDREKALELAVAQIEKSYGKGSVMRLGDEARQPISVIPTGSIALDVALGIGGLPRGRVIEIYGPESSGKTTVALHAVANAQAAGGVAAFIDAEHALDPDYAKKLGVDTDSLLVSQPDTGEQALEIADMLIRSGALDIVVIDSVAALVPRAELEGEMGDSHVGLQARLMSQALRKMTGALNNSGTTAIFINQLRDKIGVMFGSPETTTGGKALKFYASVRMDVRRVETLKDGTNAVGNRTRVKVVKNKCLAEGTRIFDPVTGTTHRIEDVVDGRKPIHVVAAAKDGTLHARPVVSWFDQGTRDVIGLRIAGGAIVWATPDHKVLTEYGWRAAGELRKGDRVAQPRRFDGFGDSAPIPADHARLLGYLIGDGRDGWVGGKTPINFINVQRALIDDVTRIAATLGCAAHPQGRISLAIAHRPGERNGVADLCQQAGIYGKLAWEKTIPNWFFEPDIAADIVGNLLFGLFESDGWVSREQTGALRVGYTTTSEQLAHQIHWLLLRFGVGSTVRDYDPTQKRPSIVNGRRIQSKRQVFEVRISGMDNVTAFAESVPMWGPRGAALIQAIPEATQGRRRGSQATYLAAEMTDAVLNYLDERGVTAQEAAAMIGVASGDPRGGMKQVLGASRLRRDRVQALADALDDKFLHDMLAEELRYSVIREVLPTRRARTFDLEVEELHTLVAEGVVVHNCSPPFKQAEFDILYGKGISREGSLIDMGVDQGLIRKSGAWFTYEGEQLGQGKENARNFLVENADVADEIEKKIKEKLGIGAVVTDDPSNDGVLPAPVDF
# Cytochrome P450 2C19 = Cytochrome P450 2C19 (Homo sapiens, UniProt P33261); test: Cytochrome panel assay with activity outcomes. Panel member name: p450-cyp2c19 Compounds with AC50 equal or less than 10 uM are considered active; assay type: functional; conditions: read-out: AC50
# Cytochrome P450 3A4 = Cytochrome P450 3A4 (Homo sapiens, UniProt P08684);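 also: CYP3A4 tested as one member of a cytochrome P450 panel screen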
# [14] = target: T1, Heat shock factor protein 1; test: decrease of HSF1-responsive luciferase luminescence – cell-based, NIH3T3, dose retest, confirmation (AID 2382); assay type: functional;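 also: NIH3T3 fibroblasts with HSF1-driven luciferase reporter stressed by proteasome inhibitor MG132; luminescence from HSF1-driven luciferase expression after 8 hours of MG132 stress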
# Sequence of FAD-linked sulfhydryl oxidase ALR (P55789 whole entry): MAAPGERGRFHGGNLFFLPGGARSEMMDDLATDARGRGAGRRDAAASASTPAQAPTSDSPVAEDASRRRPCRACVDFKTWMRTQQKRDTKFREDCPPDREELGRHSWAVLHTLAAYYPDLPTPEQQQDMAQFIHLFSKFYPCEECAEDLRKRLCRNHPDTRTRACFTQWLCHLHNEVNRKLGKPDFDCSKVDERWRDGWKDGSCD
# Sequence of Induced myeloid leukemia cell differentiation protein Mcl-1 (Q07820 whole entry): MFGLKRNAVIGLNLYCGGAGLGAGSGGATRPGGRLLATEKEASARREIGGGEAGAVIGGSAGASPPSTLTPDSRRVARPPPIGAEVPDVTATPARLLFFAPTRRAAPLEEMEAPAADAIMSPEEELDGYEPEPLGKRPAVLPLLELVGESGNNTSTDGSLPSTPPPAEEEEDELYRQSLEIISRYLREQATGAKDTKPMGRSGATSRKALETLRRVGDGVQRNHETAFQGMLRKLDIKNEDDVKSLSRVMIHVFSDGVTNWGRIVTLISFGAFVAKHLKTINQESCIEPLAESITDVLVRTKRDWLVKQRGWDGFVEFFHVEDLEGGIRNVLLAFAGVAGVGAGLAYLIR
# Sequence of Cytochrome P450 3A4 (P08684 whole entry): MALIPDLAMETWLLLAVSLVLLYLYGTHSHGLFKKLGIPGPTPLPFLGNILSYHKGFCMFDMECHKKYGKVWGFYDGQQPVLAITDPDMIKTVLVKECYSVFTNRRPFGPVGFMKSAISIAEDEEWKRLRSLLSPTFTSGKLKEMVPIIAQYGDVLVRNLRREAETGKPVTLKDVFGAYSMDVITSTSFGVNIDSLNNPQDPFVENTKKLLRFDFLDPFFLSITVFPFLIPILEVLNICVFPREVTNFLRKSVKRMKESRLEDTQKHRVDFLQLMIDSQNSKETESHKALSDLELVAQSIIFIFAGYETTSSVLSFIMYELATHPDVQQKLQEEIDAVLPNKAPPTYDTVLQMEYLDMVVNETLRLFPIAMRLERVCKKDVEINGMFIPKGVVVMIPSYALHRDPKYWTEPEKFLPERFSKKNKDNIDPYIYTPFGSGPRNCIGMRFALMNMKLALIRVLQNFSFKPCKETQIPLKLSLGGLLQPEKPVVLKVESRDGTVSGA
# Sequence of Nonstructural protein 1 (Q194T2 whole entry): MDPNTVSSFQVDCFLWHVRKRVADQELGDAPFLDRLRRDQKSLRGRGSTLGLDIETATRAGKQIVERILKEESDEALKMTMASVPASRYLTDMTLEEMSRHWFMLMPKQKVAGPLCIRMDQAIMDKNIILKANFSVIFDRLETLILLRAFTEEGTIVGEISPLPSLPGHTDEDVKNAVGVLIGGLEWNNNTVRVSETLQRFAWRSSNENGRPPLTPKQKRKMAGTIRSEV
# Sequence of Cytochrome P450 2C19 (P33261 whole entry): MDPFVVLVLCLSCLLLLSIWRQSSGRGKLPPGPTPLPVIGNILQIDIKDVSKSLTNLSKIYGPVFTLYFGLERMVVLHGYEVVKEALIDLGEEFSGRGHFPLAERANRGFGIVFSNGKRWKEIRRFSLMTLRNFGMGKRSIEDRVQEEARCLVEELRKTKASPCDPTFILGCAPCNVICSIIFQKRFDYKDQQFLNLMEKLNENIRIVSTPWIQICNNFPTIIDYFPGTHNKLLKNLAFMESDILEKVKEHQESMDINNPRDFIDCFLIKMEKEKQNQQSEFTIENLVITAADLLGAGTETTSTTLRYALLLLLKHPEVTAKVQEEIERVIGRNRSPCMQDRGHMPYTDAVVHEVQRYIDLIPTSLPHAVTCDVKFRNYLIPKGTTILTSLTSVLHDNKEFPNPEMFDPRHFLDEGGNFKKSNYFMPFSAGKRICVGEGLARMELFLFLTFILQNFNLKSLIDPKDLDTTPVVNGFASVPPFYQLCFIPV
compound,measurement,setting,value
CCc1c(C)sc(NC(=O)c2ccc(Br)o2)c1C(=O)OC,EC50,[1],> 260 µM (inactive)
COc1cc(/C=N/NC(=O)CC(=O)NC2CCCCC2)ccc1O,IC50,[2],51.6 µM (active)
same,AC50,[3],0.175 µM (active)
CN(C)c1ccc(CN(C(=O)c2ccco2)C2CCS(=O)(=O)C2)cc1 (stereo not drawn),AC50,[3],4.16 µM (active)
CN(C)S(=O)(=O)c1cccc(NC(=O)CNCC2CCCCC2)c1,IC50,[2],115 µM (active)
O=C(Oc1ccc(N(C(=O)c2ccncc2)S(=O)(=O)c2cccs2)cc1)c1ccncc1,IC50,[2],86 µM (active)
C/C(CC(=O)Nc1ccc(N(C)C)cc1)=N\NC(=O)c1ccc(F)cc1,IC50,[2],47.4 µM (active)
COc1ccc(O)c(C(=O)c2cnn(-c3ccccn3)c2)c1,EC50,[4],43.5 µM (active)
same,EC50,[5],15.4 µM (active)
same,EC50,H4,9.17 µM (active)
CC(C)c1ccc(Nc2nnc(SCC(=O)c3nnc(-c4ccccc4)o3)s2)cc1,IC50,[6],2.72 µM (active)
Cc1ccc(Cn2cc(S(=O)(=O)c3ccc(Cl)cc3)c(=O)c3cc(F)ccc32)cc1,EC50,[1],> 260 µM (inactive)
COCc1cc(CN2CCCC(C(=O)Nc3ccc(-c4ccco4)cc3)C2)ccc1OC (stereo not drawn),EC50,[1],> 260 µM (inactive)
C=CCn1c(S)nnc1-c1ccccc1[N+](=O)[O-],AC50,[3],1.69 µM (active)
CC(=O)NCCC(=O)Nc1sc2c(c1-c1nc3ccccc3[nH]1)CCCC2,AC50,[3],4.69 µM (active)
COc1cc(-c2nc3ccccn3c2/N=C/c2cc(OC)c(O)cc2Cl)ccc1O,IC50,[2],69.7 µM (active)
CC(C)(C)NC(=O)c1cccc(NC(=O)CSc2ccc(Cl)cc2)c1,EC50,[1],> 260 µM (inactive)
CN(C)S(=O)(=O)c1cc(NC(=O)CNCCN2CCOCC2)ccc1Cl,IC50,[2],154 µM (active)
CC1=NN(C(=O)c2csc(C)c2C)C(O)(C(F)(F)F)C1 (stereo not drawn),IC50,cells,42.3 µM (active)
O=C(CSc1n[nH]c(-c2ccccn2)n1)Nc1cccc(Cl)c1,AC50,[7],3.81 µM (active)
same,AC50,[8],2.9 µM (active)
same,EC50,[9],9 µM (active)
same,IC50,Nonstructural protein 1,8.24 µM (active)
same,EC50,[10],10.3 µM (active)
same,EC50,[11],8.65 µM (active)
same,AC50,[12],2.9 µM (active)
CC(C(=O)Nc1cc([N+](=O)[O-])ccc1Cl)N1CCN(c2ccc(O)cc2)CC1 (stereo not drawn),IC50,[6],4.33 µM (not active)
Cc1ccc(NC(=O)C2=C(O)c3sccc3N(C)S2(=O)=O)cc1,EC50,[4],27.2 µM (active)
same,EC50,[5],13.2 µM (active)
same,EC50,H4,> 120 µM (not active)
CN(CCCNC(=O)c1cccc(N2CCCC2=O)c1)c1ccccc1,AC50,[3],0.823 µM (active)
CCC(C)(C)c1ccc(OC(=O)c2cccnc2Cl)cc1,EC50,[1],46.8 µM (active)
Cc1ccccc1-n1c(C)cc(/C=N/NC(=O)c2ccncc2)c1C,IC50,cells,0.18 µM (active)
COc1ccccc1/C=C/C(=O)N1CCC(c2ccccc2)C1 (stereo not drawn),EC50,[4],27.8 µM (active)
same,EC50,[5],9.44 µM (active)
same,EC50,H4,23.1 µM (active)
O=c1[nH]c(CCl)nc2cc(-c3ccc(F)cc3)sc12,AC50,[13],11.7 µM (active)
same,EC50,Protein RecA,5.66 µM (active)
same,EC50,[1],32.1 µM (active)
COc1ccc2cc(S(=O)(=O)N3CCCCC3)ccc2c1S(=O)(=O)N1CCCCC1,EC50,[1],> 260 µM (inactive)
Cc1oc(=O)c(NC(=O)c2ccccc2)cc1C(=O)c1ccccc1,IC50,cells,> 50 µM (active)
same,AC50,Cytochrome P450 2C19,8.91 µM (inconclusive)
CC(=O)c1ccc(OC(=O)c2ccc(-n3nc(C)cc3C)cc2)cc1,IC50,cells,7.6 µM (active)
Cc1ccc(NC(=O)N/C=C/c2ccco2)cc1C,AC50,Cytochrome P450 3A4,12.6 µM (inconclusive)
same,AC50,[3],1.7 µM (active)
COc1cccc(N2CCN(Cc3nnnn3C3CCCCC3)CC2)c1,EC50,[14],> 195 µM (not active)
same,AC50,[3],5.12 µM (active)
Cc1occc1C(=O)N1CCCC(Nc2ccc(C(C)C)cc2)C1 (stereo not drawn),AC50,[3],3.97 µM (active)

# Reference: ChEMBL document CHEMBL1201862, “PubChem BioAssay data set” (2004)
